Test results taken from the NIST ThermoML archive (doi:10.1021/je301122r).
± gives the expanded uncertainty stated by the source.

What was measured:
[1] = 293.15 K; 101.33 kPa; Liquid; Vibrating tube method
[2] = refractive index (Na D-line) (dimensionless); conditions: 293.15 K; 101.33 kPa; Liquid; Standard Abbe refractometry

Row | SMILES | mass density [1] [kg/m3] | refractive index [2]
1 | Cc1ccc(C)c(C)c1 [1,2,4-trimethylbenzene] | 875.78 ± 0.13 | 1.5047 ± 0.0007
2 | CCc1ccccc1C [1-ethyl-2-methylbenzene] | 880.66 ± 0.13 | 1.5045 ± 0.0007
